Tests used:
[1] = system: HSC-2-Luc orthotopic transplantation (tongue); experiment: HSC-2 orthotopic transplantation mouse model; assay type: in vivo, mice; settings: Q7D×3
[2] = various in vivo models; cited from earlier work
[3] = in comparison with Halichondrin B; cited from earlier work
[4] = not only in vitro but also in vivo; cited from earlier work

SMILES: N.N.[Cl][Pt][Cl] [Cisplatin, cisplatin, reference compound]
- ILS (%) ([1]; 5 mg/kg intravenously + cetuximab 5 mg/kg): 150%
- ILS (%) ([1]; 5 mg/kg intravenously, without cetuximab): 0%

SMILES: C=C1C[C@@H]2CC[C@@]34C[C@@]5(O)O[C@H]6[C@@H](O3)[C@H]3O[C@H](CC[C@@H]3O[C@H]6[C@H]5O4)CC(=O)O[C@@H]3[C@@H](C)[C@@H]4O[C@@H]5C[C@]6(C[C@@H]7O[C@]8(C[C@H](C)[C@@H]9O[C@H]([C@@H](O)C[C@@H](O)CO)C[C@@H]9O8)C[C@H](C)[C@@H]7O6)O[C@@H]5C[C@@H]4O[C@H]3C[C@H]3O[C@@H](CC[C@@H]1O2)C[C@@H](C)C3=C [Halichondrin C]
- activity in vivo [2]: active in various in vivo models
- stability in aqueous solution [3]: unstable in aqueous solution

SMILES: C=C1C[C@@H]2CC[C@@]34C[C@H]5O[C@H]6[C@@H](O3)[C@H]3O[C@H](CC[C@@H]3O[C@H]6[C@H]5O4)CC(=O)O[C@@H]3[C@@H](C)[C@@H]4O[C@@H]5C[C@]6(CC7O[C@@]8(C[C@H](C)C7O6)C[C@H](C)[C@@H]6O[C@H](CC(=O)O)[C@H](O)C[C@@H]6O8)O[C@@H]5CC4O[C@H]3C[C@H]3O[C@@H](CC[C@@H]1O2)C[C@@H](C)C3=C (some centres unmarked) [Norhalichondrin B]
- anti-tumor activity compared with Halichondrin B [4]: much weaker than Halichondrin B
